Reference: US8741906B2 (priority 2011, dated 2014)

What was measured:
human CB1 receptors = target: T1, human CB1 receptors (Homo sapiens, UniProt P21554); assay: functional cAMP assay, human CB1; type: cell-based; details: CHO cells expressing human CB1, cAMP; read-out: human CB1 EC50
T1 construct: expressed in transfected cells; host or cells: CHO cells
Procedure, shortened: (§1)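 Readout: TR-FRET cAMP detection at 730 and 645 nm with 355 nm excitation, quantified from a standard curve spanning 10 μM to 0.13 nM cAMP. Human CB1- or CB2-expressing CHO cells were exposed to compound for 30 min at 30 °C in KRB buffer containing 1 mM IBMX. EC50 derived.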

human CB2 receptors = target: T2, human CB2 receptors (Homo sapiens, UniProt P34972); assay: functional cAMP assay, human CB2; type: cell-based; details: CHO cells expressing human CB2, cAMP; read-out: human CB2 EC50
T2 construct: expressed in transfected cells; host or cells: CHO cells
T2 sequence (P34972 whole entry): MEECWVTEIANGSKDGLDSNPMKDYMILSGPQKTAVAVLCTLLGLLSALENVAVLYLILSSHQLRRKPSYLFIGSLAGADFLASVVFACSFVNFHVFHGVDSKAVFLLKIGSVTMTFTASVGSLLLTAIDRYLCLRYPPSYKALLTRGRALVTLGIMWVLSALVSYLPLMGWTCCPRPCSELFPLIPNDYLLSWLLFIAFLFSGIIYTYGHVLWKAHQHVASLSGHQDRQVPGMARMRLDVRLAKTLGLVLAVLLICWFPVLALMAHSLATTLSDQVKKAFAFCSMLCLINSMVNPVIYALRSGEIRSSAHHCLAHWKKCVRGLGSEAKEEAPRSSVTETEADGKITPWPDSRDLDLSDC
Procedure, shortened: as §1

T1 sequence (P21554 whole entry): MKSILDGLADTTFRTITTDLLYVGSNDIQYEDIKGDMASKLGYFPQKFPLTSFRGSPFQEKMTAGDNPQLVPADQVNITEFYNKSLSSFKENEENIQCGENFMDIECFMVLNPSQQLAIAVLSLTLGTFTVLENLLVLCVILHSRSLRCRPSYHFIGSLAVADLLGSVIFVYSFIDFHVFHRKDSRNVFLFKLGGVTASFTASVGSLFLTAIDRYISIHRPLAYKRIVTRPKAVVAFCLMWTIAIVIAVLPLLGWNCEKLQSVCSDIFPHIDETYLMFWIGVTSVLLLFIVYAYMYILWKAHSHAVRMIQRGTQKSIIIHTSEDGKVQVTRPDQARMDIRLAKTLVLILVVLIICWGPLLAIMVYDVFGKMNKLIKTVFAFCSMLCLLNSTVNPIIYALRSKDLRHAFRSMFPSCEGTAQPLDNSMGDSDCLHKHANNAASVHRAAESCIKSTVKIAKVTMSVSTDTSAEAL

## CC(C)(C)c1nc(N2CCC(F)(F)C2)c2nnn(CCc3ccncc3)c2n1 [Example 122, 5-tert-Butyl-7-(3,3-difluoro-pyrrolidin-1-yl)-3-(2-pyridin-4-yl-ethyl)-3H-[1,2,3]triazolo[4,5-d]pyrimidine]
Human CB1 receptors
  EC50: > 10000 nM
Human CB2 receptors
  EC50: 1.3 nM

## CC(C)(C)c1nc(N2CCC(F)(F)C2)c2nnn(Cc3c(C(F)(F)F)ccc(Cl)c3Cl)c2n1 [Example 123, 5-tert-Butyl-3-(2,3-dichloro-6-trifluoromethyl-benzyl)-7-(3,3-difluoro-pyrrolidin-1-yl)-3H-[1,2,3]triazolo[4,5-d]pyrimidine]
Human CB1 receptors
  EC50: 306 nM
Human CB2 receptors
  EC50: 0.8 nM

## CC(C)(C)c1nc(N2CCC(F)(F)C2)c2nnn(Cc3nccc(Cl)c3Cl)c2n1 [Example 124, 5-tert-Butyl-3-(3,4-dichloro-pyridin-2-ylmethyl)-7-(3,3-difluoro-pyrrolidin-1-yl)-3H-[1,2,3]triazolo[4,5-d]pyrimidine]
Human CB1 receptors
  EC50: 276 nM
Human CB2 receptors
  EC50: 0.3 nM

## CC(C)(C)c1nc(N2CCC(F)(F)C2)c2nnn(C3CS(=O)(=O)C3)c2n1 [Example 125, 5-tert-Butyl-7-(3,3-difluoro-pyrrolidin-1-yl)-3-(1,1-dioxo-1λ^6-thietan-3-yl)-3H-[1,2,3]triazolo[4,5-d]pyrimidine]
Human CB1 receptors
  EC50: > 10000 nM
Human CB2 receptors
  EC50: 1.9 nM

## CC(C)(C)c1nc(N2CCC(F)(F)C2)c2nnn(C3CCS(=O)(=O)C3)c2n1 (centres unmarked) [Example 126, 5-tert-Butyl-7-(3,3-difluoro-pyrrolidin-1-yl)-3-(1,1-dioxo-tetrahydro-1λ^6-thiophen-3-yl)-3H-[1,2,3]triazolo[4,5-d]pyrimidine]
Human CB1 receptors
  EC50: 496 nM
Human CB2 receptors
  EC50: 0.3 nM

## CC(C)(C)c1nc(N2CCC(F)(F)C2)c2nnn(CC(=O)c3ccccn3)c2n1 [Example 127, 2-[5-tert-Butyl-7-(3,3-difluoro-pyrrolidin-1-yl)-[1,2,3]triazolo[4,5-d]pyrimidin-3-yl]-1-pyridin-2-yl-ethanone]
Human CB1 receptors
  EC50: > 10000 nM
Human CB2 receptors
  EC50: 0.4 nM

## Cc1nnc(Cn2nnc3c(N4CCC(F)(F)C4)nc(C(C)(C)C)nc32)o1 [Example 128, 5-tert-Butyl-7-(3,3-difluoro-pyrrolidin-1-yl)-3-(5-methyl-[1,3,4]oxadiazol-2-ylmethyl)-3H-[1,2,3]triazolo[4,5-d]pyrimidine]
Human CB1 receptors
  EC50: > 10000 nM
Human CB2 receptors
  EC50: 0.4 nM

## CC(C)(C)c1nc(N2CCC(F)(F)C2)c2nnn(Cc3ccncc3Cl)c2n1 [Example 129, 5-tert-Butyl-3-(3-chloro-pyridin-4-ylmethyl)-7-(3,3-difluoro-pyrrolidin-1-yl)-3H-[1,2,3]triazolo[4,5-d]pyrimidine]
Human CB1 receptors
  EC50: 670 nM
Human CB2 receptors
  EC50: 0.1 nM

## Cc1nc(Cn2nnc3c(N4CCC(F)(F)C4)nc(C(C)(C)C)nc32)no1 [Example 130, 5-tert-Butyl-7-(3,3-difluoro-pyrrolidin-1-yl)-3-(5-methyl-[1,2,4]oxadiazol-3-ylmethyl)-3H-[1,2,3]triazolo[4,5-d]pyrimidine]
Human CB1 receptors
  EC50: 564 nM
Human CB2 receptors
  EC50: 0.5 nM

## Cn1nnnc1Cn1nnc2c(N3CCC(F)(F)C3)nc(C(C)(C)C)nc21 [Example 131, 5-tert-Butyl-7-(3,3-difluoro-pyrrolidin-1-yl)-3-(1-methyl-1H-tetrazol-5-ylmethyl)-3H-[1,2,3]triazolo[4,5-d]pyrimidine]
Human CB1 receptors
  EC50: > 10000 nM
Human CB2 receptors
  EC50: 0.1 nM

## Cn1ncnc1Cn1nnc2c(N3CCC(F)(F)C3)nc(C(C)(C)C)nc21 [Example 132, 5-tert-Butyl-7-(3,3-difluoro-pyrrolidin-1-yl)-3-(2-methyl-2H-[1,2,4]triazol-3-ylmethyl)-3H-[1,2,3]triazolo[4,5-d]pyrimidine]
Human CB1 receptors
  EC50: > 10000 nM
Human CB2 receptors
  EC50: 0.7 nM

## Cn1c(Cn2nnc3c(N4CCC(F)(F)C4)nc(C(C)(C)C)nc32)nnc1S(C)(=O)=O [Example 133, 5-tert-Butyl-7-(3,3-difluoro-pyrrolidin-1-yl)-3-(5-methanesulfonyl-4-methyl-4H-[1,2,4]triazol-3-ylmethyl)-3H-[1,2,3]triazolo[4,5-d]pyrimidine]
Human CB1 receptors
  EC50: > 10000 nM
Human CB2 receptors
  EC50: 4.4 nM

## CN(C)c1c(Cl)cncc1Cn1nnc2c(N3CCC(F)(F)C3)nc(C(C)(C)C)nc21 [Example 134, {3-[5-tert-Butyl-7-(3,3-difluoro-pyrrolidin-1-yl)-[1,2,3]triazolo[4,5-d]pyrimidin-3-ylmethyl]-5-chloro-pyridin-4-yl}-dimethyl-amine]
Human CB1 receptors
  EC50: 234 nM
Human CB2 receptors
  EC50: 0.3 nM

## CC(C)(C)c1nc(N2CCC(F)(F)C2)c2nnn(Cc3c[nH]nc3C(F)(F)F)c2n1 [Example 135, 5-tert-Butyl-7-(3,3-difluoro-pyrrolidin-1-yl)-3-(3-trifluoromethyl-1H-pyrazol-4-ylmethyl)-3H-[1,2,3]triazolo[4,5-d]pyrimidine]
Human CB1 receptors
  EC50: 1400 nM
Human CB2 receptors
  EC50: 0.4 nM

## Cc1nonc1Cn1nnc2c(N3CC[C@H](O)C3)nc(C(C)(C)C)nc21 [Example 136, (S)-1-[5-tert-Butyl-3-(4-methyl-furazan-3-ylmethyl)-3H-[1,2,3]triazolo[4,5-d]pyrimidin-7-yl]-pyrrolidin-3-ol]
Human CB1 receptors
  EC50: > 10000 nM
Human CB2 receptors
  EC50: 0.2 nM

## Cc1noc(Cn2nnc3c(N4CC[C@H](O)C4)nc(C(C)(C)C)nc32)n1 [Example 137, (S)-1-[5-tert-Butyl-3-(3-methyl-[1,2,4]oxadiazol-5-ylmethyl)-3H-[1,2,3]triazolo[4,5-d]pyrimidin-7-yl]-pyrrolidin-3-ol]
Human CB1 receptors
  EC50: > 10000 nM
Human CB2 receptors
  EC50: 18.2 nM

## CC(C)(C)c1nc(N2CC[C@H](O)C2)c2nnn(Cc3ncccc3Cl)c2n1 [Example 138, (S)-1-[5-tert-Butyl-3-(3-chloro-pyridin-2-ylmethyl)-3H-[1,2,3]triazolo[4,5-d]pyrimidin-7-yl]-pyrrolidin-3-ol]
Human CB1 receptors
  EC50: > 10000 nM
Human CB2 receptors
  EC50: 0.4 nM

## CC(C)(C)c1nc(N2CC[C@H](O)C2)c2nnn(Cc3nc(Cl)ccc3Cl)c2n1 [Example 139, (S)-1-[5-tert-Butyl-3-(3,6-dichloro-pyridin-2-ylmethyl)-3H-[1,2,3]triazolo[4,5-d]pyrimidin-7-yl]-pyrrolidin-3-ol]
Human CB1 receptors
  EC50: > 10000 nM
Human CB2 receptors
  EC50: 0.3 nM

## CC(C)(C)c1nc(N2CC[C@H](O)C2)c2nnn(Cc3cccnc3Cl)c2n1 [Example 140, (S)-1-[5-tert-Butyl-3-(2-chloro-pyridin-3-ylmethyl)-3H-[1,2,3]triazolo[4,5-d]pyrimidin-7-yl]-pyrrolidin-3-ol]
Human CB1 receptors
  EC50: > 10000 nM
Human CB2 receptors
  EC50: 0.1 nM

## CC(C)(C)c1nc(N2CC[C@H](O)C2)c2nnn(Cc3cccc(Cl)c3Cl)c2n1 [Example 141, (S)-1-[5-tert-Butyl-3-(2,3-dichloro-benzyl)-3H-[1,2,3]triazolo[4,5-d]pyrimidin-7-yl]-pyrrolidin-3-ol]
Human CB1 receptors
  EC50: > 10000 nM
Human CB2 receptors
  EC50: 0.5 nM

## CC(C)(C)c1nc(N2CC[C@H](O)C2)c2nnn(Cc3ccccc3C(F)(F)F)c2n1 [Example 142, (S)-1-[5-tert-Butyl-3-(2-trifluoromethyl-benzyl)-3H-[1,2,3]triazolo[4,5-d]pyrimidin-7-yl]-pyrrolidin-3-ol]
Human CB1 receptors
  EC50: > 10000 nM
Human CB2 receptors
  EC50: 0.2 nM

## CC(C)(C)c1nc(N2CC[C@H](O)C2)c2nnn(Cc3ccccc3S(C)(=O)=O)c2n1 [Example 143, (S)-1-[5-tert-Butyl-3-(2-methanesulfonyl-benzyl)-3H-[1,2,3]triazolo[4,5-d]pyrimidin-7-yl]-pyrrolidin-3-ol]
Human CB1 receptors
  EC50: > 10000 nM
Human CB2 receptors
  EC50: 0.1 nM
